Results as given in US20250303359A1, “COMPOUNDS AND METHODS FOR SAFE MITIGATION OF OCEAN ACIDIFICATION AND CAPTURE OF ATMOSPHERIC CARBON DIOXIDE” (Negative Emissions Materials, Inc., priority 2022, published 2025).
Read-outs that look alike come from different tables or passages of the source.

Legend:
[1] = system: Tetraselmis suecica; details: for survival after six days of regrowth/culture: 1 hour exposure to 100 g/L Mg(OH)2, 200 g/L NaOH or 100 g/L Ca(OH)2, dilution to 10 mg/L, 6 days; for surviving cells immediately after dilution: 1 hour exposure to 200 g/L NaOH or 100 g/L Ca(OH)2, then dilution to 10 mg/L
[2] = system: Tetraselmis suecica cultures; details: hydroxide additions equivalent to 1 and 10 mg/L of Mg(OH)2, 6-day period
[3] = Sinking rate of Mg(OH)2 in seawater; type: physicochemical
[4] = system: Tisbe battaglial; details: chronic, 7 days, n = 1; Mg(OH)2 mixed as paste into local seawater
[5] = system: aquatic organisms
[6] = system: Skeletonema pseudocastatum
[7] = system: Tisbe battaglial; details: acute, 48 h, n = 1; Mg(OH)2 mixed as paste into local seawater
[8] = system: Danio rerio; details: acute, 96 h, n = 1; Mg(OH)2 paste

Molecule: [Ca+2].[OH-].[OH-] [Ca(OH)2, calcium hydroxide]
- survival after six days of regrowth/culture [1]: very few living cells
- surviving cells immediately after dilution [1]: no surviving cells
- ecotoxicity (growth inhibition) [2]: not ecotoxic

Molecule: [Mg+2].[OH-].[OH-] [Mg(OH)2, magnesium hydroxide]
- sinking rate ([3]; added as powder, visible particles (>100 μm)): 0.8-6 km/day
- particle size distribution ([3]; added to seawater as paste): 5-60 μm
- sinking rate ([3]; small particles of about 10 micron, based on 4 cm sinking within 10 minutes, LISST instrument): ~6 m/day
- survival after six days of regrowth/culture [1]: no mortality
- mortality compared to the control water ([1]; less than 10 hours of exposure to 100 g/L prior to dilution to 10 mg/L, survival six days after): no mortality
- Lowest observed effect concentration (LOEC) [4]: >100 mg/L
- ecotoxicity (growth inhibition) [2]: not ecotoxic
- lowest tested concentration showing some toxicity effect on aquatic organisms ([5]; all standard test organisms): 50 mg/L
- concentration at which no toxicity effect was observed ([5]; any of the standard test organisms): 25000 ng/mL
- dosage showing no negative impact ([6]; standardized ecotoxicity work): 25 mg/L
- dosages showing negative impact ([6]; standardized ecotoxicity work): ≥ 50 mg/L
- Lowest observed effect concentration (LOEC) ([6]; sub-chronic, 72 h, n = 2, Mg(OH)2 mixed as paste into local seawater): 50 mg/L
- Lowest observed effect concentration (LOEC) [7]: 100 mg/L
- pH of solution in seawater (0.05 g/L Mg(OH)2, after 115 minutes mixing (300 rpm), still increasing): 9.04
- mixing time to full dissolution of particles (concentrations below ~10 mg/L, 60 m deep seawater pH 7.9-8.0, approx. 22 °C, 300 rpm): approximately 3 hours
- maximum pH achieved (seawater, depends on Mg(OH)2 concentration): ~9.5
- Lowest observed effect concentration (LOEC) [8]: >100 mg/L

Molecule: sodium hydroxide [NaOH]
- survival after six days of regrowth/culture [1]: no surviving organisms
- surviving cells immediately after dilution [1]: no surviving cells
